The test system of assay [1] is common mosquito (Culex pipiens pallens). Description: Rate of emergence of last instar larvae of common mosquito reared 7 days in treated water (Test Example 1). To be noted: 3.5 ppm. The assay is classed as in vivo. How it is done: An emulsifiable concentrate prepared according to Formulation Example 1 was diluted with water to make a 400 fold dilution. The dilution (0.7 ml) was added to 100 ml of distilled water. Last instar larvae of common mosquito (Culex pipiens pallens) were released therein and reared for 7 days until their emergence. The rate of emergence was observed according to the following criteria: […]

Assay [2] deals with housefly (Musca domestica). Put plainly: Emergence inhibition of housefly larvae reared in treated artificial culture (Test Example 2). The note with it: read-out: Emergence inhibition. It counts as in vivo. On the procedure: Powdered animal feed (2 g) was thoroughly mixed with bran (14 g). An emulsifiable concentrate prepared according to Formulation Example 1 was diluted with water to a designed concentration and the dilution was added to the above mixture. The resultant mixture was stirred well to make an artificial culture. Thirty larvae of housefly (Musca domestica) were reared therein until their pupation. The obtained pupae were placed into a plastic cup, and the rate of emergence was determined. According to the following equation, the emergence inhibition (%) was calculated: [formula]

Where [3] appears, read: last instar larvae of Culex pipiens pallens, reared 7 days.
Where [4] appears, read: 0.3 ppm, Musca domestica larvae.

Like-named read-outs stand apart in the source and are kept apart here.

Consider `CC(C)CCOc1ccc(OC(C)COc2nccs2)cc1` (stereo not drawn) [compound 24], for which the Rate of emergence result in assay [1] (setting [3]) was “A (less than 10%)”.
The inhibition is the percentage by which the read-out fell short of the control. As to `CC(C)CCCc1ccc(OCCOc2nccs2)cc1` [compound 35], in assay [1] (setting [3]), the Rate of emergence result was “A (less than 10%)”. Also, in assay [2] (setting [4]), the inhibition at 0.3 ppm was 51%. For the same molecule, in assay [2] (1 ppm, Musca domestica larvae), the inhibition at 1 ppm turned out to be 100%. In addition, in assay [2] (3 ppm, Musca domestica larvae), the inhibition at 3 ppm was found to be 100%.
On to `CCOc1ccc(OCCOc2ccccn2)cc1` [compound 8], for which the Rate of emergence entry in assay [1] (setting [3]) was “A (less than 10%)”.
As for `Cc1cc(OCCOc2nccs2)cc(C)c1OCCC(C)C` [compound 31], in assay [1] (setting [3]), the Rate of emergence entry is listed as “A (less than 10%)”.
For `CC(C)CCOc1ccc(OC(C)COc2ncccn2)cc1` (stereo not drawn) [compound 17], in assay [1] (setting [3]), the Rate of emergence result is reported as “A (less than 10%)”.
As for `Cc1cc(OCCOc2ccccn2)cc(C)c1OCCC(C)C` [compound 33], the Rate of emergence entry in assay [1] (setting [3]) is listed as “A (less than 10%)”.
`CC(C)CCOc1ccc(OCCOc2ncccn2)cc1` [compound 20]: in assay [1] (setting [3]), the Rate of emergence entry was “A (less than 10%)”.
On the same count and under the same terms, under `CC(C)CCCC(C)CCCCOc1ncccn1` (stereo not drawn) [compound 4] stands “A (less than 10%)”.
In the case of `CC(C)CCOc1ccc(OCCSC2=NCCS2)cc1` [compound 21], the Rate of emergence result in assay [1] (setting [3]) is “A (less than 10%)”.
As to `CCCCCOc1ccc(OCCOc2ccccn2)cc1` [compound 11], the Rate of emergence result in assay [1] (setting [3]) is “A (less than 10%)”.
As to `CC(C)CCOc1ccc(OCCOc2nccs2)cc1` [compound 16], the Rate of emergence result in assay [1] (setting [3]) is “A (less than 10%)”. In assay [2] (setting [4]), the inhibition at 0.3 ppm amounted to 45%. Further, the inhibition at 1 ppm in assay [2] (1 ppm, Musca domestica larvae) was found to be 96%. Also, the inhibition at 3 ppm in assay [2] (3 ppm, Musca domestica larvae) is 100%.
On to `COC(C)(C)COc1ccc(OCCOc2nccs2)cc1` [compound 27], for which, in assay [1] (setting [3]), the Rate of emergence entry was “A (less than 10%)”.
As to `CC(C)CCOc1ccc(OCCOc2ccccn2)cc1` [Compound No. 7], the Rate of emergence entry in assay [1] (setting [3]) was “A (less than 10%)”. Besides, in assay [2] (setting [4]), the inhibition at 0.3 ppm stood at 31%. Further, the inhibition at 1 ppm in assay [2] (1 ppm, Musca domestica larvae) stood at 87%. Also, in assay [2] (3 ppm, Musca domestica larvae), the inhibition at 3 ppm is 100%.
For `CC(C)COc1ccc(OCCOc2nccs2)cc1` [compound 26], in assay [1] (setting [3]), the Rate of emergence result is “A (less than 10%)”. In addition, the inhibition at 0.3 ppm in assay [2] (setting [4]) was 11%. In assay [2] (1 ppm, Musca domestica larvae), the inhibition at 1 ppm amounted to 61%. Besides, the inhibition at 3 ppm in assay [2] (3 ppm, Musca domestica larvae) was determined as 100%.
As for `CCCOc1ccc(OCCOc2ccccn2)cc1` [compound 10], in assay [1] (setting [3]), the Rate of emergence result was “A (less than 10%)”.
On to `CC(C)CCCc1ccc(OCCOc2ccccn2)cc1` [compound 34], for which the Rate of emergence entry in assay [1] (setting [3]) was “A (less than 10%)”. For the same molecule, the inhibition at 0.3 ppm in assay [2] (setting [4]) amounted to 41%. Moreover, in assay [2] (1 ppm, Musca domestica larvae), the inhibition at 1 ppm is 67%. The inhibition at 3 ppm in assay [2] (3 ppm, Musca domestica larvae) was found to be 100%.
As to `COC(C)(C)COc1ccc(OCCOc2ccccn2)cc1` [compound 3], in assay [1] (setting [3]), the Rate of emergence result is on record as “A (less than 10%)”.
Take `CC(C)COCc1ccc(OCCOc2ccccn2)cc1` [compound 28]: the Rate of emergence entry in assay [1] (setting [3]) is listed as “A (less than 10%)”. Besides, the inhibition at 0.3 ppm in assay [2] (setting [4]) amounted to 93%. Besides, the inhibition at 1 ppm in assay [2] (1 ppm, Musca domestica larvae) amounted to 100%. Besides, the inhibition at 3 ppm in assay [2] (3 ppm, Musca domestica larvae) is 100%.
As for `CCCCOc1ccc(OCCOc2ccccn2)cc1` [Compound No. 9], the Rate of emergence entry in assay [1] (setting [3]) is given as “A (less than 10%)”.
Take `CC(C)CCOc1ccc(OCCOc2ccccn2)cc1Cl` [compound 32]: in assay [1] (setting [3]), the Rate of emergence result was “A (less than 10%)”. Besides, the inhibition at 0.3 ppm in assay [2] (setting [4]) turned out to be 3%. For the same molecule, in assay [2] (1 ppm, Musca domestica larvae), the inhibition at 1 ppm was determined as 56%. Moreover, the inhibition at 3 ppm in assay [2] (3 ppm, Musca domestica larvae) was 94%.
With `CC(C)CCOc1ccc(OCC(C)Oc2ccccn2)cc1` (stereo not drawn) [compound 15], the Rate of emergence entry in assay [1] (setting [3]) was “A (less than 10%)”. Besides, in assay [2] (setting [4]), the inhibition at 0.3 ppm turned out to be 0%. Further, in assay [2] (1 ppm, Musca domestica larvae), the inhibition at 1 ppm was 43%. For the same molecule, in assay [2] (3 ppm, Musca domestica larvae), the inhibition at 3 ppm stood at 93%.
In the case of `CC(C)COCc1ccc(OCCOc2nccs2)cc1` [Compound No. 29], the Rate of emergence entry in assay [1] (setting [3]) was “A (less than 10%)”. In addition, the inhibition at 0.3 ppm in assay [2] (setting [4]) turned out to be 100%. Further, in assay [2] (1 ppm, Musca domestica larvae), the inhibition at 1 ppm is 100%. In assay [2] (3 ppm, Musca domestica larvae), the inhibition at 3 ppm is 100%.
Take `CC(C)CCOc1ccc(OCC(C)Oc2ncccn2)cc1` (stereo not drawn) [compound 19]: the Rate of emergence result in assay [1] (setting [3]) is “A (less than 10%)”.
For the molecule `CC(C)COc1ccc(OCCOc2ccccn2)cc1` [Compound No. 2], the Rate of emergence entry in assay [1] (setting [3]) is given as “A (less than 10%)”. The inhibition at 0.3 ppm in assay [2] (setting [4]) came to 3%. The inhibition at 1 ppm in assay [2] (1 ppm, Musca domestica larvae) amounted to 42%. For the same molecule, the inhibition at 3 ppm in assay [2] (3 ppm, Musca domestica larvae) was 100%.
For `COC(C)(C)CCCC(C)CCCCOc1ccccn1` (stereo not drawn) [compound 1], the Rate of emergence result in assay [1] (setting [3]) is “A (less than 10%)”.
For `CC(C)(C)CCOc1ccc(OCCOc2ccccn2)cc1` [compound 13], in assay [1] (setting [3]), the Rate of emergence result is on record as “A (less than 10%)”.
Turning to `C=C(C)COc1ccc(OCCOc2ccccn2)cc1` [compound 5], in assay [1] (setting [3]), the Rate of emergence entry is reported as “A (less than 10%)”.
For the molecule `C=CCOc1ccc(OCCOc2ccccn2)cc1` [compound 6], in assay [1] (setting [3]), the Rate of emergence result is given as “A (less than 10%)”.
On to `CC(C)CCOc1ccc(OCCSc2ccccn2)cc1` [Compound No. 22], for which, in assay [1] (setting [3]), the Rate of emergence result is given as “A (less than 10%)”.
Consider `CC(C)CCOc1ccc(OCCSc2ncccn2)cc1` [compound 23], for which the Rate of emergence result in assay [1] (setting [3]) was “A (less than 10%)”.
As for `CC(C)(C)COc1ccc(OCCOc2ccccn2)cc1` [compound 14], the Rate of emergence result in assay [1] (setting [3]) is given as “A (less than 10%)”.
As for `CCC(C)COc1ccc(OCCOc2ccccn2)cc1` (stereo not drawn) [compound 12], the Rate of emergence result in assay [1] (setting [3]) is listed as “A (less than 10%)”. Besides, in assay [2] (setting [4]), the inhibition at 0.3 ppm was determined as 0%. Further, in assay [2] (1 ppm, Musca domestica larvae), the inhibition at 1 ppm came out at 20%. The inhibition at 3 ppm in assay [2] (3 ppm, Musca domestica larvae) worked out at 83%.
With `CC(C)CCOc1ccc(OCC(C)Oc2nccs2)cc1` (stereo not drawn) [compound 25], the Rate of emergence result in assay [1] (setting [3]) is given as “A (less than 10%)”. Besides, the inhibition at 0.3 ppm in assay [2] (setting [4]) worked out at 8%. Further, in assay [2] (1 ppm, Musca domestica larvae), the inhibition at 1 ppm came out at 58%. For the same molecule, the inhibition at 3 ppm in assay [2] (3 ppm, Musca domestica larvae) is 100%.
In the case of `COC(C)(C)CCCC(C)C/C=C/C(C)=C/C(=O)OC(C)C` (stereo not drawn) [(a), methoprene, reference compound], in assay [1] (168 h), the Rate of emergence entry is on record as “A (less than 10%)”. Besides, in assay [2] (Musca domestica), the inhibition at 0.3 ppm is 2%, the inhibition at 1 ppm was 13% and the inhibition at 3 ppm is 60%.
For the molecule `CC(C)CCOc1ccc(OCCOc2nccs2)cc1Cl` [compound 30], the Rate of emergence entry in assay [1] (setting [3]) was “A (less than 10%)”.
The same measure, in the same setting: with `CC(C)CCOc1ccc(OC(C)COc2ccccn2)cc1` (stereo not drawn) [compound 18] the entry was “A (less than 10%)”.

For the origin of these results see patent US4714706A, “Pyridyloxy derivatives and their use as insecticides” (Sumitomo Chemical Company, Limited, priority 1985, dated 1987).
